Measurements as given in paper PMC6269066, “A New Synthetic Route to Original Sulfonamide Derivatives in 2-Trichloromethylquinazoline Series: A Structure-Activity Relationship Study of Antiplasmodial Activity” (Molecules, 2012).
Like-named read-outs stand apart in the source and are kept apart here.

Key:
in vitro = conditions: human
[1] = test system: multi-resistant K1 Plasmodium falciparum strain; assay: in vitro antiplasmodial activity, K1 strain (Table 1); format: cell-based
human HepG2 cell line [2] = test system: human HepG2 cell line
[3] = test system: multi-resistant W2 or K1 Plasmodium falciparum strains; assay: in vitro antiplasmodial activity, 2-trichloromethylquinazoline series (Table 2); format: cell-based; conditions: for IC50: Plasmodium falciparum, read-out: IC50 P. falc.
[4] = cytotoxicity toward the human HepG2 cell line (CC50); conditions: HepG2 cells
human HepG2 cell line [5] = test system: human HepG2 cell line; design: method as in PMID 17981462, PMID 19482476, PMID 19926173, PMID 21741131, PMID 21852132; conditions: previously synthesized series (Table 2, entries 1-4); cited from earlier work
[6] = test system: multi-resistant W2 or K1 Plasmodium falciparum strains; design: method as in PMID 17981462, PMID 19482476, PMID 19926173, PMID 21741131, PMID 21852132; conditions: previously synthesized series (Table 2, entries 1-4); W2 or K1 strain; read-out: IC50 P. falc.; cited from earlier work
[7] = P. falciparum K1 strain, highest tested concentration 10 µM, read-out: IC50 P fK1
[8] = Plasmodium falciparum, P. falciparum K1 strain, highest tested concentration 10 µM, read-out: IC50 P fK1

| Compound | IC50 [1, 8] [µM] | CC50 [4] [µM] | melting point [°C] | further results |
| --- | --- | --- | --- | --- |
| COc1cccc2c1C(=O)c1c(O)c3c(c(O)c1C2=O)C[C@@](O)(C(=O)CO)C[C@@H]3O[C@H]1C[C@H](N)[C@H](O)[C@H](C)O1 [Doxorubicine] |  |  |  | CC50 (in vitro): 0.2 µM |
| O=S(=O)(Nc1nc(C(Cl)(Cl)Cl)nc2ccccc12)c1cccc2ccccc12 [8r, N-(2-trichloromethylquinazolin-4-yl)naphtalene-1-sulfonamide] |  |  |  | IC50 [1, 7]: > 10 µM; CC50 (human HepG2 cell line [2]): 47.8 µM |
| C[C@H]1c2cccc(O)c2C(=O)C2=C(O)[C@]3(O)C(=O)C(C(N)=O)=C(O)[C@@H](N(C)C)[C@@H]3[C@@H](O)[C@@H]21 [Doxycycline, reference compound] | 6 | 20 |  | IC50 ([3]; Table 2, sulfonamide series and reference drugs): 6 µM |
| N#Cc1ccc(S(=O)(=O)Nc2nc(C(Cl)(Cl)Cl)nc3ccccc23)cc1 [8d, 4-Cyano-N-(2-trichloromethylquinazolin-4-yl)benzenesulfonamide] | > 10 | 73.8 | 204 |  |
| O=S(=O)(Nc1nc(C(Cl)(Cl)Cl)nc2ccccc12)c1ccc2ccccc2c1 [8q, N-(2-trichloromethylquinazolin-4-yl)naphtalene-2-sulfonamide] |  |  |  | IC50 [1, 7]: > 10 µM; CC50 (human HepG2 cell line [2]): 48.8 µM |
| Cc1ccc(S(=O)(=O)Nc2nc(C(Cl)(Cl)Cl)nc3ccccc23)cc1 [8b, 4-Methyl-N-(2-trichloromethylquinazolin-4-yl)benzenesulfonamide] | > 10 | 68.7 | > 260 |  |
| CS(=O)(=O)Nc1nc(C(Cl)(Cl)Cl)nc2ccccc12 [8t, N-(2-trichloromethylquinazolin-4-yl)methanesulfonamide] | > 10 | 241 | 186 |  |
| O=S(=O)(Nc1nc(C(Cl)(Cl)Cl)nc2ccccc12)c1ccc(Br)cc1 [8f, 4-Bromo-N-(2-trichloromethylquinazolin-4-yl)benzenesulfonamide] | > 10 | 57.4 | > 260 |  |
| COc1ccc(S(=O)(=O)Nc2nc(C(Cl)(Cl)Cl)nc3ccccc23)cc1 [8c, 4-Methoxy-N-(2-trichloromethylquinazolin-4-yl)benzenesulfonamide] | > 10 | 102 | 196 |  |
| O=S(=O)(Nc1nc(C(Cl)(Cl)Cl)nc2ccccc12)c1cccc(F)c1 [8h, 3-Fluoro-N-(2-trichloromethylquinazolin-4-yl)benzenesulfonamide] | > 10 | 106 | 194 |  |
| O=S(=O)(Nc1nc(C(Cl)(Cl)Cl)nc2ccccc12)c1ccc(C(F)(F)F)cc1 [8m, N-(2-trichloromethylquinazolin-4-yl)-4-(trifluoromethyl)benzenesulfonamide] | > 10 | 49 | 166 |  |
| O=S(=O)(Nc1nc(C(Cl)(Cl)Cl)nc2ccccc12)c1ccc(Cl)cc1 [8e, 4-Chloro-N-(2-trichloromethylquinazolin-4-yl)benzenesulfonamide] | > 10 | 71.1 | > 260 |  |
| O=S(=O)(Nc1nc(C(Cl)(Cl)Cl)nc2ccccc12)c1cccc(C(F)(F)F)c1 [8n, N-(2-trichloromethylquinazolin-4-yl)-3-(trifluoromethyl)benzenesulfonamide] | > 10 | 75.1 | 255 |  |
| O=[N+]([O-])c1ccccc1S(=O)(=O)Nc1nc(C(Cl)(Cl)Cl)nc2ccccc12 [8l, 2-Nitro-N-(2-trichloromethylquinazolin-4-yl)benzenesulfonamide] | > 10 | 126 | > 260 |  |
| O=[N+]([O-])c1ccc(S(=O)(=O)Nc2nc(C(Cl)(Cl)Cl)nc3ccccc23)cc1 [8j, 4-Nitro-N-(2-trichloromethylquinazolin-4-yl)benzenesulfonamide] | > 10 | 88.3 | 250 |  |
| O=S(=O)(Nc1nc(C(Cl)(Cl)Cl)nc2ccccc12)c1ccc(-c2ccccc2)cc1 [8p, N-(2-trichloromethylquinazolin-4-yl)biphenyl-4-sulfonamide] | > 10 | 38.2 | 210 |  |
| CCN(CC)CCCC(C)Nc1ccnc2cc(Cl)ccc12 (stereo not shown) [Chloroquine, reference compound] |  |  |  | IC50 ([1]; Plasmodium falciparum, K1, read-out: IC50 P fK1): 0.6 µM; IC50 [3]: 0.6 µM |
| O=S(=O)(Nc1nc(C(Cl)(Cl)Cl)nc2ccccc12)c1ccc(F)cc1 [8g, 4-Fluoro-N-(2-trichloromethylquinazolin-4-yl)benzenesulfonamide] | > 10 | 69.5 | > 260 |  |
| O=S(=O)(Nc1nc(C(Cl)(Cl)Cl)nc2ccccc12)c1ccccc1 [8a, N-(2-Trichloromethylquinazolin-4-yl)benzenesulfonamide] | > 10 | 82 | 200 |  |
| O=S(=O)(Nc1nc(C(Cl)(Cl)Cl)nc2ccccc12)c1cccs1 [8s, N-(2-trichloromethylquinazolin-4-yl)thiophene-2-sulfonamide] | > 10 | 121 | 191 |  |
| O=[N+]([O-])c1cccc(S(=O)(=O)Nc2nc(C(Cl)(Cl)Cl)nc3ccccc23)c1 [8k, 3-Nitro-N-(2-trichloromethylquinazolin-4-yl)benzenesulfonamide] | > 10 | 120 | 204 |  |
| O=S(=O)(Nc1nc(C(Cl)(Cl)Cl)nc2ccccc12)c1ccccc1C(F)(F)F [8o, N-(2-trichloromethylquinazolin-4-yl)-2-(trifluoromethyl)benzenesulfonamide] | > 10 | 73.8 | 205 |  |
| Fc1ccc(-c2nc(C(Cl)(Cl)Cl)nc3ccccc23)cc1 [C00001] |  |  |  | SI (selectivity index) ([3]; SI = CC50/IC50, previously synthesized series (Table 2, entries 1-4)): >50; CC50 (human HepG2 cell line [5]): > 125 µM; IC50 [6]: 2.5 µM |
| O=S(=O)(Nc1nc(C(Cl)(Cl)Cl)nc2ccccc12)c1ccccc1F [8i, 2-Fluoro-N-(2-trichloromethylquinazolin-4-yl)benzenesulfonamide] | > 10 | 136 | 188 |  |
